Structures can show the parent of a compound that is named as a salt.
Experiment: in vitro
Settings: rat, gh3-tre-luc cells

| SMILES | CC50 at 24 h (AC50 (uM) modified / 1000) [µM] | further results |
| --- | --- | --- |
| COc1cccc(OC)c1C(=O)O [2,6-Dimethoxybenzoic acid] | > 90 | – |
| C[C@]12CCC(=O)C=C1CC[C@@H]1[C@@H]2C(=O)C[C@@]2(C)[C@H]1CC[C@]2(O)C(=O)CO [Cortisone] | > 90 | – |
| Brc1ccccc1 [Bromobenzene] | > 90 | – |
| CN(C(=O)C(Cl)Cl)c1ccc(OC(=O)c2ccco2)cc1 [Diloxanide furoate] | > 50 | – |
| CCOC(=O)O[C@]1(C(=O)OCCl)CC[C@H]2[C@@H]3CCC4=CC(=O)C=C[C@]4(C)[C@H]3[C@@H](O)C[C@@]21C [Loteprednol etabonate] | > 50 | – |
| O=C(Cl)c1cccc(C(=O)Cl)c1 [1,3-Benzenedicarbonyl dichloride] | > 90 | – |
| CC(C)CN(C[C@@H](O)[C@H](Cc1ccccc1)NC(=O)O[C@H]1CO[C@H]2OCC[C@H]21)S(=O)(=O)c1ccc(N)cc1 [Darunavir] | > 50 | – |
| O=S(=O)(O)CCCN1CCOCC1 [4-Morpholinepropanesulfonic acid] | > 90 | – |
| CC(C)COC(=O)CCCCC(=O)OCC(C)C [Diisobutyl adipate] | > 90 | – |
| Nc1cc(S(=O)(=O)O)cc2cc(S(=O)(=O)O)cc(O)c12 [Monosodium 8-amino-1-naphthol-3,6-disulfonate] | > 90 | – |
| C[C@H]1O[C@@H](O[C@H]2CC[C@@]3(C)[C@H](CC[C@@H]4[C@@H]3C[C@@H](O)[C@]3(C)[C@@H](C5=CC(=O)OC5)CC[C@]43O)C2)C[C@H](O)[C@@H]1O[C@H]1C[C@H](O)[C@H](O[C@H]2C[C@H](O)[C@H](O[C@@H]3O[C@H](CO)[C@@H](O)[C@H](O)[C@H]3O)[C@@H](C)O2)[C@@H](C)O1 [Deslanoside] | > 50 | – |
| C=CC(=O)OCCN(C)C [2-(Dimethylamino)ethyl acrylate] | > 90 | – |
| Cc1ccc(NC(N)=O)cc1 [p-Tolylurea] | > 90 | – |
| C=CC(=O)NC(C)(C)C [tert-Butylacrylamide] | > 90 | – |
| Clc1cccc(-c2cc(Cl)cc(Cl)c2)c1 [Aroclor 1016] | > 90 | – |
| CCCCNCCCC [N-Butyl-1-butanamine] | > 90 | – |
| CCCCCCC(=O)O[C@H]1CC[C@H]2[C@@H]3CC[C@H]4CC(=O)C=C(C)[C@]4(C)[C@H]3CC[C@]12C [Methenolone enanthate] | – | CC50 at 24 h (AC50 (uM) modified / 1000, Tox21_110001=Tox21_112600, viability, 1 nM T3 present, 24 h): > 50 µM |
| C[N+](=O)[O-] [Nitromethane] | – | CC50 at 24 h (AC50 (uM) modified / 1000, Tox21_110001=Tox21_200822, viability, 1 nM T3 present, 24 h): > 90 µM |
| O=C(O)CCn1c2c(c3ccccc31)C[C@H](NS(=O)(=O)c1ccc(F)cc1)CC2 [Ramatroban] | > 50 | – |
| C=CC1(C)OC(=O)N(c2cc(Cl)cc(Cl)c2)C1=O (stereo not shown) [Vinclozolin] | > 90 | – |
| Cc1cc2c(s1)Nc1ccccc1N=C2N1CCN(C)CC1 [Olanzapine] | 15.7 | – |
| N#C[C@@H]1C[C@@H]2C[C@@H]2N1C(=O)[C@@H](N)C12CC3CC(CC(O)(C3)C1)C2 [Saxagliptin] | > 50 | – |

| SMILES | CC50 at 24 h (AC50 (uM) modified / 1000) [µM] | further results |
| --- | --- | --- |
| C=CCn1c(=O)n(CC=C)c(=O)n(CC=C)c1=O [Triallyl isocyanurate] | > 90 | – |
| C#CC(C)(O)CC(C)C (stereo not shown) [3,5-Dimethyl-1-hexyn-3-ol] | > 90 | – |
| NC1CCC(CC2CCC(N)CC2)CC1 (stereo not shown) [4,4'-Diaminodicyclohexylmethane] | > 90 | – |
| CCN(CC)CCC(=O)N1c2ccccc2Sc2ccc(Cl)cc21 [Chloracizine] | 23.2 | – |
| C=CC(=O)OCC(CO)(COCC(COC(=O)C=C)(COC(=O)C=C)COC(=O)C=C)COC(=O)C=C [Dipentaerythritol pentaacrylate] | 1.74 | – |
| O=C1CCCCC1C1CCCCC1 (stereo not shown) [1,1'-Bi(cyclohexyl)-2-one] | > 90 | – |
| CNC(=O)ON=CC(C)(C)S(C)(=O)=O [Aldoxycarb] | – | CC50 at 24 h (AC50 (uM) modified / 1000, Tox21_110001=Tox21_201338, viability, 1 nM T3 present, 24 h): > 90 µM |
| CCCCN(CCCCO)N=O [Butyl-N-(4-hydroxybutyl)nitrosamine] | – | CC50 at 24 h (AC50 (uM) modified / 1000, Tox21_110001=Tox21_301263, viability, 1 nM T3 present, 24 h): > 90 µM |
| CCCN1CCC[C@H](c2cccc(O)c2)C1 [R-3-PPP hydrochloride] | > 50 | – |
| O=c1[nH]c2ccccc2c(=O)o1 [2H-3,1-Benzoxazine-2,4(1H)-dione] | – | CC50 at 24 h (AC50 (uM) modified / 1000, Tox21_110001=Tox21_201325, viability, 1 nM T3 present, 24 h): > 90 µM |
| C[Si](C)(C)C [Tetramethylsilane] | > 90 | – |
| Oc1ccc(-c2ccccc2)cc1Cl [2-Chloro-4-phenylphenol] | 81 | – |
| N#CC(Cl)(Cl)Cl [Trichloroacetonitrile] | > 90 | – |
| CN1[C@@H]2CC[C@H]1CC(NC(=O)n1c(=O)[nH]c3ccccc31)C2 (stereo partly shown) [Itasetron] | > 50 | – |
| O=c1oc2ccccc2c(O)c1C1CCCc2ccccc21 (stereo not shown) [Coumatetralyl] | > 90 | – |
| CCCOCCC [Propyl ether] | > 90 | – |
| C1CCC2=NCCCN2CC1 [1,8-Diazabicyclo[5.4.0]undec-7-ene] | > 90 | – |
| CCC(=O)OCc1ccccc1 [Benzyl propanoate] | > 90 | – |
| NS(=O)(=O)c1ccccc1OC(F)(F)F [2-(Trifluoromethoxy)benzenesulfonamide] | > 90 | – |
| CC1(C)CCC(C)(C)c2cc(C(=O)Nc3ccc(C(=O)O)cc3)ccc21 [AM580] | 66.2 | – |
| Cc1ncc([N+](=O)[O-])n1CC(O)CCl (stereo not shown) [Ornidazole] | > 20 | – |
| c1ccc2sc(SN3CCOCC3)nc2c1 [N-Oxydiethylenebenzothiazole-2-sulfenamide] | > 50 | – |

| SMILES | CC50 at 24 h (AC50 (uM) modified / 1000) [µM] | further results |
| --- | --- | --- |
| Brc1c(Br)c(Br)c(Br)c(Br)c1Br [Hexabromobenzene] | > 5 | – |
| CC(=O)c1cccnc1 [3-Acetylpyridine] | > 90 | – |
| O=S(=O)(c1cccc2cnccc12)N1CCCNCC1 [Fasudil hydrochloride] | > 50 | – |
| Nc1ccc(Cl)cc1[N+](=O)[O-] [4-Chloro-2-nitroaniline] | > 90 | – |
| Nc1ccc(Cl)c(Cl)c1 [3,4-Dichloroaniline] | > 90 | – |
| CNCCC(Oc1ccc(C(F)(F)F)cc1)c1ccccc1 (stereo not shown) [Fluoxetine hydrochloride] | 10.3 | – |
| CC(C)C(=O)Nc1ccc([N+](=O)[O-])c(C(F)(F)F)c1 [Flutamide] | 88.9 | – |
| CN1CCCN=C1COC(=O)C(O)(c1ccccc1)C1CCCCC1 (stereo not shown) [Oxyphencyclimine hydrochloride] | > 50 | – |
| CCCCCCCCCCCCN(CCO)CCO [Lauryldiethanolamine] | 14.8 | – |
| Cc1cccc([N+](=O)[O-])c1C [1,2-Dimethyl-3-nitrobenzene] | > 90 | – |
| CCCCCCCCCCO [1-Decanol] | > 90 | – |
| O=Nc1ccc(O)cc1 [4-Nitrosophenol] | > 90 | – |
| Cc1ccc(-c2c(Cl)nc(C#N)n2S(=O)(=O)N(C)C)cc1 [Cyazofamid] | 40.3 | – |
| CC(C)CCC[C@@H](C)[C@H]1CC[C@H]2[C@@H]3CC=C4C[C@@H](O)CC[C@]4(C)[C@H]3CC[C@]12C [Cholesterol] | > 50 | – |
| CCCOc1ccc2nc(NC(=O)OC)sc2c1 [Tioxidazole] | 2.38 | – |
| O=C1c2c(O)cccc2Cc2cccc(O)c21 [Anthralin] | > 90 | – |
| CN1C(C)(C)CCCC1(C)C [Pempidine d-tartaric acid] | > 50 | – |
| CC(C)CNCC(C)C [Diisobutylamine] | > 90 | – |
| CCCCOC(=O)COC(=O)c1ccccc1C(=O)OCCCC [Butylphthalyl butylglycolate] | > 90 | – |
| CC(C)C(=O)OCC(=O)[C@@]12O[C@H](C3CCCCC3)O[C@@H]1C[C@H]1[C@@H]3CCC4=CC(=O)C=C[C@]4(C)[C@H]3[C@@H](O)C[C@@]12C [Ciclesonide] | 17.7 | – |

Reference: publication PMC6792352, “Limited Chemical Structural Diversity Found to Modulate Thyroid Hormone Receptor in the Tox21 Chemical Library” (Environmental Health Perspectives, 2019)
